In paper PMC9832568, “Experimental and computational snapshots of C-C bond formation in a C-nucleoside synthase” (Open Biology, 2023):
Where a chain is given by its changes, count along the chain named. Values joined by “and” are separate entries in the source; they are usually repeats but may differ in a detail not shown here. Equal values may be shown once.

Legend:
K263A ForT variant = target: T1, K263A ForT variant (Streptomyces kaniharaensis, UniProt A0A5S9CYM0, K263A); assay: biochemical
T1 sequence (A0A5S9CYM0 1-341 K263A): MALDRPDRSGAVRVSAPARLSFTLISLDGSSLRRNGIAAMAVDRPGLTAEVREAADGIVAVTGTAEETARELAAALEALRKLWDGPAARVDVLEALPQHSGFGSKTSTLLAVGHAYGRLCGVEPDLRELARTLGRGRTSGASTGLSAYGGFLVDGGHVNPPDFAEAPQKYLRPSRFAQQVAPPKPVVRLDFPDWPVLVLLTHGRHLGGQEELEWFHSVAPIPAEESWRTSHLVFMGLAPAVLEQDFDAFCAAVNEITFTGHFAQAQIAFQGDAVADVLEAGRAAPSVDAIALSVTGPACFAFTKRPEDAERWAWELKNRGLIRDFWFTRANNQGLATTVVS

T138A ForT variant = target: T2, T138A ForT variant (Streptomyces kaniharaensis, UniProt A0A5S9CYM0, T138A); assay: biochemical
T2 sequence (A0A5S9CYM0 1-341 T138A): T1 sequence (A0A5S9CYM0 1-341 K263A) with T138A, A263K

WT ForT [1] = target: T3, WT ForT (Streptomyces kaniharaensis, UniProt A0A5S9CYM0); assay: ITC binding of PRPP to free enzyme, absence of Mg2+; settings: no Mg2+, room temperature
T3 sequence (A0A5S9CYM0 entry or part of it): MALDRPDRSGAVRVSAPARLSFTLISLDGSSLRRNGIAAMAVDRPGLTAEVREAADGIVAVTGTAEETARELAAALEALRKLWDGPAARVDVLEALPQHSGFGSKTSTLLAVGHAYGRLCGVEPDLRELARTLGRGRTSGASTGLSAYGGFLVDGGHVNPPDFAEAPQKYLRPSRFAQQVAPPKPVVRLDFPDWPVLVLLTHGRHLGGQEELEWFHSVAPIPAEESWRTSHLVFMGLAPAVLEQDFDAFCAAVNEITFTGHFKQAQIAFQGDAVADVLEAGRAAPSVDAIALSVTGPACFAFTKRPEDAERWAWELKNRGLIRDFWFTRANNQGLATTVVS
From the text: We therefore extended these studies to obtain the binding affinity of APDA to the ForT/PRPP binary complex at room temperature using isothermal calorimetry (ITC) measurements. […] The omission of the catalytically important metal ion thereby avoids any heat generated by catalytic turnover ‘contaminating’ heat released by ligand binding. As a result, these ITC studies report only on the affinity of PRPP and APDA for the free WT enzyme and its PRPP binary complex, respectively.

L24A ForT variant = target: T4, L24A ForT variant (Streptomyces kaniharaensis, UniProt A0A5S9CYM0, L24A); assay: biochemical
T4 sequence (A0A5S9CYM0 1-341 L24A): T1 sequence (A0A5S9CYM0 1-341 K263A) with L24A, A263K

S21A ForT variant = target: T5, S21A ForT variant (Streptomyces kaniharaensis, UniProt A0A5S9CYM0, S21A); assay: biochemical
T5 sequence (A0A5S9CYM0 1-341 S21A): T1 sequence (A0A5S9CYM0 1-341 K263A) with S21A, A263K

S174A ForT variant = target: T6, S174A ForT variant (Streptomyces kaniharaensis, UniProt A0A5S9CYM0, S174A); assay: biochemical
T6 sequence (A0A5S9CYM0 1-341 S174A): T1 sequence (A0A5S9CYM0 1-341 K263A) with S174A, A263K

E211A ForT variant = target: T7, E211A ForT variant (Streptomyces kaniharaensis, UniProt A0A5S9CYM0, E211A); assay: biochemical
T7 sequence (A0A5S9CYM0 1-341 E211A): T1 sequence (A0A5S9CYM0 1-341 K263A) with E211A, A263K

T138V ForT variant = target: T8, T138V ForT variant (Streptomyces kaniharaensis, UniProt A0A5S9CYM0, T138V); assay: biochemical
T8 sequence (A0A5S9CYM0 1-341 T138V): T1 sequence (A0A5S9CYM0 1-341 K263A) with T138V, A263K

WT ForT [2] = target: T3, WT ForT; set-up: method as in PMID 31518483; settings: ForT-catalysed coupling to PRPP, two products with a new C-C bond; cited from earlier work
WT ForT [3] = target: T3, WT ForT; assay: Substrate scope of WT ForT, LC-MS assay; assay type: biochemical; settings: MgPRPP
Experimental: We assayed a series of pyrazoles as ForT substrates in which the extracyclic amine was replaced by hydrogen (PDA), nitro- (NPDA), methyl- (MPDA) and iodo- (IPDA) groups (figure 5a; electronic supplementary material, table S1). […] On the other hand, 4-amino-1H-pyrazole-3-carboxylate (APCA) can be coupled to PRPP by ForT to give two products containing a new C-C bond, albeit in less than 5% overall yield (figure 5b). In order to assess the importance of pyrazole substitution, we incubated 3-amino-1H-pyrazole-4-carboxylate (iso-APCA) (electronic supplementary material, table S2) and MgPRPP in the presence of ForT. […] Thus, the product was one of two possible C-N nucleotides.

ForT/PRPP complex = target: T9, ForT/PRPP complex (Streptomyces kaniharaensis, UniProt A0A5S9CYM0); assay: Binding of HPDA to the ForT/PRPP complex; settings: Li, unpublished
T9 sequence (A0A5S9CYM0 1-341): T1 sequence (A0A5S9CYM0 1-341 K263A) with A263K

For `O=P(O)(O)OC[C@H]1O[C@H](OP(=O)(O)OP(=O)(O)O)[C@H](O)[C@@H]1O` [PRPP, 5′-phosphoribose-1′-pyrophosphate], the Kd (K263A ForT variant) was 20000 ± 8000 nM, the Kd (T138A ForT variant) was 6700 ± 500 nM and the Kd (WT ForT [1]) was 900 nM and 930 nM. It also gave a Kd (L24A ForT variant) of 1500 ± 100 nM, a Kd (S21A ForT variant) of 350 ± 20 nM and a Kd (S174A ForT variant) of 6000 ± 300 nM. It also gave a Kd (E211A ForT variant) of 950 ± 20 nM and a Kd (T138V ForT variant) of 700 ± 400 nM.

In the case of `Nc1cn[nH]c1C(=O)O` [APCA, 4-amino-1H-pyrazole-3-carboxylate], the “overall yield of coupled products” value (WT ForT [2]) is listed as “less than 5%”.

With `O=C(O)c1cc(C(=O)O)[nH]n1` [PDA] the “substrate for the ForT-catalysed coupling with PRPP” value (from here on “substrate”) (WT ForT [3]) was “None of these pyrazole-dicarboxylates proved to be substrates”.

For `Nc1[nH]ncc1C(=O)O` [iso-APCA, 3-amino-1H-pyrazole-4-carboxylate], the “substrate” value (WT ForT [3]) was “a new product had been formed”.

With `O=C(O)c1n[nH]c(C(=O)O)c1I` [IPDA] the “substrate” value (WT ForT [3]) was “None of these pyrazole-dicarboxylates proved to be substrates”.

With `O=C(O)c1n[nH]c(C(=O)O)c1[N+](=O)[O-]` [NPDA] the “substrate” value (WT ForT [3]) was “None of these pyrazole-dicarboxylates proved to be substrates”.

For `O=C(O)c1n[nH]c(C(=O)O)c1O` [HPDA, 4-hydroxy-1H-pyrazole-3,5-dicarboxylic acid], the “substrate” value (WT ForT [3]) was “is not a substrate” and the Kd (ForT/PRPP complex) was 37000 nM.

In the case of `Cc1c(C(=O)O)n[nH]c1C(=O)O` [MPDA], the “substrate” value (WT ForT [3]) is reported as “None of these pyrazole-dicarboxylates proved to be substrates”.
